Source: patent US20100159030A1, “METHODS FOR DETECTING AND MODULATING THE SENSITIVITY OF TUMOR CELLS TO ANTI-MITOTIC AGENTS AND FOR MODULATING TURMORGENICITY” (NewSouth Innovations Pty Limited, priority 2007, published 2010)

Test system: H460 cells
Experiment: Cell cycle analysis by flow cytometry (propidium iodide)
Assay type: cell-based, Human
Details: 24 h
Protocol: The distribution of DNA content in βII or βIVb tubulin siRNA-transfected H460 cells was determined by flow cytometry. After 72 h transfection, transfected cells were exposed to vincristine at 5 nM or 40 nM concentrations for 24 h. On the day of analysis, both adherent and floating cells were harvested, washed with PBS and then stained with a solution containing 0.4% Triton® X-100 (Sigma), 50 μg/ml propidium iodide (Sigma), and 2 μg/ml DNase-free RNase (Roche, Indianapolis, Ind.) in the dark for 15 min at 37′C. DNA content was measured by a FACSCalibur flow cytometer (Becton Dickinson, San Diego, Calif.). The flow rate was <200 nuclei per second and 10,000 cells from each sample were analysed. Measurements were performed under the same instrumental settings. The CellQuest® program was used to quantitate the distribution of cells in each cell cycle phase: sub-G1 (apoptotic cells), G1, S and G2/M.
To determine whether βIII-tubulin silencing affects the cell cycle profiles, cell cycle analysis using flow cytometry was performed. Cell cycle analysis was determined by transfecting H460 cells with siRNA for 72 h and harvesting (adherent and suspension) cells 24 h after drug treatment. DNA content was stained for 15 min at 37° C. with a solution containing 0.4% Triton® X-100 (Sigma-Aldrich), 50 μg/ml propidium iodide (Sigma-Aldrich), and 2 μg/ml DNAse-free RNAse (Roche, Indianapolis, Ind.). The cells were then analyzed for cell cycle perturbation using a FACSCalibur (Becton-Dickinson, Franklin Lakes, N.J.). The CellQuest® program was used to quantitate the distribution of cells in each cell cycle phase: sub-G1(apoptotic cells), G1, S and G2/M.

CC(=O)O[C@H]1C(=O)[C@@]2(C)[C@H]([C@H](OC(=O)c3ccccc3)[C@]3(O)C[C@H](OC(=O)[C@H](O)[C@@H](NC(=O)c4ccccc4)c4ccccc4)C(C)=C1C3(C)C)[C@]1(OC(C)=O)CO[C@@H]1C[C@@H]2O [Paclitaxel, paclitaxel]
cell cycle profile (control siRNA cells, 40 nM): marked G2/M block
cell cycle profile (βIII-tubulin siRNA cells vs control siRNA, 5 nM): higher sub-G1 (apoptotic cells) content
cell cycle profile (βIII-tubulin siRNA cells, 40 nM): marked increase in the sub-G1 population
